The results in this text go back to patent publication US20220402950A1, “SUBSTITUTED BENZIMIDAZOLES AS PAD4 INHIBITORS” (BRISTOL-MYERS SQUIBB COMPANY, priority 2018, published 2022).

Structures are written as SMILES. pIC50: −log10 of the molar value. Where two headings read alike, the source gives them in different places.

For orientation: pIC50 means the negative decadic logarithm of the IC50, by convention in mol/L.

The target of this test is human PAD4 (hPAD4) (Homo sapiens, UniProt Q9UM07). The test can be described thus: RFMS Human PAD4 Functional Assay. Conditions: 5 nM hPAD4, 250 μM BAEE. The format is biochemical. On the procedure: RFMS Human PAD4 Functional Assay:
Compounds were solubilized in 100% DMSO to achieve a 10 mM compound concentration. Compound stock solutions were stored at RT. A series of dilutions were prepared in DMSO and mixed 8 times with 20 μL mixing volume. Final top concentration of compound in the assay is 50 μM.
0.13 μL of compound solution was added to 13 μL of 10 nM PAD4 in assay buffer. After 30 min 13 μl of 500 μM of BAEE was added in 25 mM hepes, pH 7.5, 5 mM NaCl, 1 mM DTT, 0.2 mg/ml BSA, 0.01% CHAPS, 50 μM Calcium, 5 μM TPEN was added and the reaction incubated for 90 min at 37° C. The enzymatic reaction was quenched by addition of 15 μl of 6.1N TCA, 100% Final Concentration is 20%, 35 μl of 8.5 mM phenyl glyoxal (final concentration 4 mM) is then added and the reaction is incubated for 30 min at 37° C.
After 30 minutes the plates are spun down to remove all precipitate. The enzyme reaction was quenched with an equal volume of methanol containing internal standard (modified citrulline). Samples were loaded onto the Rapid Fire RF300 system (Agilent) wherein they were first sipped for 1000 ms and then directly loaded to a C18 separations cartridge using a mixture of acetonitrile containing 0.01% formic acid for 3000 ms desalting. The flow rate of the mobile phase was 1.5 ml/min.
The dwell time for each transition was set at 200 ms, and the ESI voltage was used at 5500 with a source temperature of 400° C. Extracted ion peaks for each transition were integrated using the Rapid Fire Integrator software. Peak area of analyte was normalized with internal standard.).

The mark [1] stands for this setting: hPAD4 RFMS IC50, human PAD4, rapid-fire mass spectrum (RFMS) assay.
Where [2] appears, read: human PAD4, rapid-fire mass spectrum (RFMS) assay, read-out: hPAD4 RFMS IC50.

Chain of human PAD4 (hPAD4) (Q9UM07 whole entry): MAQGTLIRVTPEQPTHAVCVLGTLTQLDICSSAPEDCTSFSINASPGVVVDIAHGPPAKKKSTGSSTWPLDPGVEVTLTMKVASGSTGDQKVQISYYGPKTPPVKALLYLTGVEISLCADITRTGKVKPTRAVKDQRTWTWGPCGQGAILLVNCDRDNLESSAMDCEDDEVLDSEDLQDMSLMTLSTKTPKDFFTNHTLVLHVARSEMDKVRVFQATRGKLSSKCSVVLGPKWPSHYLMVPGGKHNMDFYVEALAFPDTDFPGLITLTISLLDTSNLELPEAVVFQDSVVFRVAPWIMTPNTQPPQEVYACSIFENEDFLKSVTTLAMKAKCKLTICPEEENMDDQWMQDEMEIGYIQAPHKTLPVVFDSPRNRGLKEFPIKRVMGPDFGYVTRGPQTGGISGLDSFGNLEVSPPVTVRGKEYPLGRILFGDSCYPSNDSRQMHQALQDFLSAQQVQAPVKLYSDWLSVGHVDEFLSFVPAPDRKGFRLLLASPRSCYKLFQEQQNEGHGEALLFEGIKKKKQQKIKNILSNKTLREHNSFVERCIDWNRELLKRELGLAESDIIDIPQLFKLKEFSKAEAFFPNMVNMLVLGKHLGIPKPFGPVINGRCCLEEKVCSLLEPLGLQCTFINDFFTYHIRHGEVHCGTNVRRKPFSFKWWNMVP

On to `CCOC(=O)c1ccccc1-c1cccc2cc(-c3nc4cc(C(=O)N5C[C@H]6CC[C@@H]5[C@@H]6N)cc(OC)c4n3C)n(CC3CC3)c12` [Example 123, ethyl 2-(2-(5-((1R,4R,7R)-7-amino-2-azabicyclo[2.2.1]heptane-2-carbonyl)-7-methoxy-1-methyl-1H-benzo[d]imidazol-2-yl)-1-(cyclopropylmethyl)-1H-indol-7-yl)benzoate], for which the pIC50 under setting [1] is 7.08. Under setting [1], `COCC(=O)N1CCC(c2cccc3cc(-c4nc5cc(C(=O)N6C[C@H](N)C[C@@H](F)C6)cc(OC)c5n4C)n(CC4CC4)c23)CC1` [Example 226, 1-(4-(2-(5-((3R,5R)-3-amino-5-fluoropiperidine-1-carbonyl)-7-methoxy-1-methyl-1H-benzo[d]imidazol-2-yl)-1-(cyclopropylmethyl)-1H-indol-7-yl)piperidin-1-yl)-2-methoxyethan-1-one] showed a pIC50 of 7.28. On the same count and under the same terms, the value for `COc1cc(C(=O)N2C[C@H]3CC[C@@H]2[C@@H]3N)cc2nc(-c3cc4cccc(C5CN(C(=O)Cc6cccnc6)C5)c4n3CC3CC3)n(C)c12` [Example 78, 1-[3-(2-{5-[(1R,4R,7R)-7-amino-2-azabicyclo[2.2.1]heptane-2-carbonyl]-7-methoxy-1-methyl-1H-1,3-benzodiazol-2-yl}-1-(cyclopropylmethyl)-1H-indol-7-yl)azetidin-1-yl]-2-(pyridin-3-yl)ethan-1-one] was 8.00; that for `COc1cc(C(=O)N2C[C@H]3CC[C@@H]2[C@@H]3N)cc2nc(-c3cc4cccc(C5CCN(C(=O)CC#N)CC5)c4n3CC3CC3)n(C)c12` [Example 231, 3-(4-(2-(5-((1R,4R,7R)-7-amino-2-azabicyclo[2.2.1]heptane-2-carbonyl)-7-methoxy-1-methyl-1H-benzo[d]imidazol-2-yl)-1-(cyclopropylmethyl)-1H-indol-7-yl)piperidin-1-yl)-3-oxopropanenitrile] was 7.18; that for `COc1cc(C(=O)N2C[C@H]3CC[C@@H]2[C@@H]3N)cc2nc(-c3cc4cccc(C5CC(C(=O)N6CC[C@@H](O)C6)C5)c4n3CC3CC3)n(C)c12` (single isomer, unassigned) [Example 52] was 7.01. For `COc1cc(C(=O)N2C[C@H]3CC[C@@H]2[C@@H]3N)cc2nc(-c3cc4cccc(-c5ccc(O)c(C(N)=O)c5)c4n3CC3CC3)n(C)c12` [Example 120, 5-(2-(5-((1R,4R,7R)-7-amino-2-azabicyclo[2.2.1]heptane-2-carbonyl)-7-methoxy-1-methyl-1H-benzo[d]imidazol-2-yl)-1-(cyclopropylmethyl)-1H-indol-7-yl)-2-hydroxybenzamide], the pIC50 under setting [2] was 7.19.

Under setting [1], `COc1cc(C(=O)N2C[C@H]3CC[C@@H]2[C@@H]3N)cc2nc(-c3cc4cccc(C5CN(C(=O)CCO)C5)c4n3CC3CC3)n(C)c12` [Example 80, 1-[3-(2-{5-[(1R,4R,7R)-7-amino-2-azabicyclo[2.2.1]heptane-2-carbonyl]-7-methoxy-1-methyl-1H-1,3-benzodiazol-2-yl}-1-(cyclopropylmethyl)-1H-indol-7-yl)azetidin-1-yl]-3-hydroxypropan-1-one] showed a pIC50 of 7.80. In the case of `COc1cc(C(=O)N2C[C@H]3CC[C@@H]2[C@@H]3N)cc2nc(-c3cc4cccc(NC5CCNCC5)c4n3CC3CC3)n(C)c12` [Example 158, ((1R,4R,7R)-7-amino-2-azabicyclo[2.2.1]heptan-2-yl)(2-(1-(cyclopropylmethyl)-7-(piperidin-4-ylamino)-1H-indol-2-yl)-7-methoxy-1-methyl-1H-benzo[d]imidazol-5-yl)methanone], the pIC50 under setting [2] is 7.16.

As to `COc1cc(C(=O)N2C[C@H]3CC[C@@H]2[C@@H]3N)cc2nc(-c3cc4cccc(C5CN(S(C)(=O)=O)C5)c4n3CC3CC3)n(C)c12` [Example 64, (1R,4R,7R)-2-{2-[1-(cyclopropylmethyl)-7-(1-methanesulfonylazetidin-3-yl)-1H-indol-2-yl]-7-methoxy-1-methyl-1H-1,3-benzodiazole-5-carbonyl}-2-azabicyclo[2.2.1]heptan-7-amine], the negative logarithm of the IC50 (pIC50) under setting [2] was 7.51. The compound `COc1cc(C(=O)N2CC3CCC2[C@@H]3N)cc2nc(-c3cc4cccc(-c5ccc(NC(C)=O)cc5)c4n3CC3CC3)n(C)c12` (stereo partly drawn) [Example 133, N-(4-(2-(5-((7R)-7-amino-2-azabicyclo[2.2.1]heptane-2-carbonyl)-7-methoxy-1-methyl-1H-benzo[d]imidazol-2-yl)-1-(cyclopropylmethyl)-1H-indol-7-yl)phenyl)acetamide] had a pIC50 under setting [1] of 6.92. The compound `COc1cc(C(=O)N2C[C@H]3CC[C@@H]2[C@@H]3N)cc2nc(-c3cc4cc(C)cc(-c5cn[nH]c5)c4n3CC3CC3)n(C)c12` [Example 154, ((1R,4R,7R)-7-amino-2-azabicyclo[2.2.1]heptan-2-yl)(2-(1-(cyclopropylmethyl)-5-methyl-7-(1H-pyrazol-4-yl)-1H-indol-2-yl)-7-methoxy-1-methyl-1H-benzo[d]imidazol-5-yl)methanone] gave a pIC50 under setting [1] of 7.37. Turning to `COc1cc(C(=O)N2C[C@H]3CC[C@@H]2[C@@H]3N)cc2nc(-c3cc4cccc(-c5cnn(CC(C)(C)O)c5)c4n3CC3CC3)n(C)c12` [Example 140, ((1R,4R,7R)-7-amino-2-azabicyclo[2.2.1]heptan-2-yl)(2-(1-(cyclopropylmethyl)-7-(1-(2-hydroxy-2-methylpropyl)-1H-pyrazol-4-yl)-1H-indol-2-yl)-7-methoxy-1-methyl-1H-benzo[d]imidazol-5-yl)methanone], the pIC50 under setting [1] was 6.97. Under setting [1], `COc1cc(C(=O)N2C[C@H](N)C[C@@H](F)C2)cc2nc(-c3cc4cccc(C5CC(C(=O)N6CCCC6)C5)c4n3CC3CC3)n(C)c12` (single isomer, unassigned) [Example 115] had a pIC50 of 7.19.

As for `COc1cc(C(=O)N2CC3CCC2[C@@H]3N)cc2nc(-c3cc4cccc(-c5cnn(C6CCOCC6)c5)c4n3CC3CC3)n(C)c12` (stereo partly drawn) [Example 132, ((7R)-7-amino-2-azabicyclo[2.2.1]heptan-2-yl)(2-(1-(cyclopropylmethyl)-7-(1-(tetrahydro-2H-pyran-4-yl)-1H-pyrazol-4-yl)-1H-indol-2-yl)-7-methoxy-1-methyl-1H-benzo[d]imidazol-5-yl)methanone], the pIC50 under setting [1] was 6.75. Take `CNC(=O)C1CC(c2cccc3cc(-c4nc5cc(C(=O)N6C[C@H](N)C[C@@H](F)C6)cc(OC)c5n4C)n(CC4CC4)c23)C1` (single isomer, unassigned) [Example 112]: the pIC50 under setting [2] is 6.84.

In turn, `COc1cc(C(=O)N2C[C@H]3CC[C@@H]2[C@@H]3N)cc2nc(-c3cc4cccc(-c5ccc(O)c(Cl)c5)c4n3CC3CC3)n(C)c12` [Example 92, 4-(2-{5-[(1R,4R,7R)-7-amino-2-azabicyclo[2.2.1]heptane-2-carbonyl]-7-methoxy-1-methyl-1H-1,3-benzodiazol-2-yl}-1-(cyclopropylmethyl)-1H-indol-7-yl)-2-chlorophenol] showed a pIC50 under setting [1] of 7.24. Take `COc1cc(C(=O)N2C[C@H]3CC[C@@H]2[C@@H]3N)cc2nc(-c3cc4cccc(Cl)c4n3CC3CC3)n(C)c12` [Example 145, ((1R,4R,7R)-7-amino-2-azabicyclo[2.2.1]heptan-2-yl)(2-(7-chloro-1-(cyclopropylmethyl)-1H-indol-2-yl)-7-methoxy-1-methyl-1H-benzo[d]imidazol-5-yl)methanone]: the pIC50 under setting [1] is 6.91. On the same count and under the same terms, the figure for `COc1cc(C(=O)N2C[C@H](N)C[C@@H](F)C2)cc2nc(-c3cc4cccc(C5CCN(C(C)=O)CC5)c4n3CC3CC3)n(C)c12` [Example 205, 1-(4-(2-(5-((3R,5R)-3-amino-5-fluoropiperidine-1-carbonyl)-7-methoxy-1-methyl-1H-benzo[d]imidazol-2-yl)-1-(cyclopropylmethyl)-1H-indol-7-yl)piperidin-1-yl)ethan-1-one] is 7.39; for `COc1cc(C(=O)N2C[C@H]3CC[C@@H]2[C@@H]3N)cc2nc(-c3cc4cccc(-c5ccc(C(N)=O)cc5F)c4n3CC3CC3)n(C)c12` [Example 191, 4-(2-(5-((1R,4R,7R)-7-amino-2-azabicyclo[2.2.1]heptane-2-carbonyl)-7-methoxy-1-methyl-1H-benzo[d]imidazol-2-yl)-1-(cyclopropylmethyl)-1H-indol-7-yl)-3-fluorobenzamide] it is 7.09. In the case of `COc1cc(C(=O)N2C[C@H]3CC[C@@H]2[C@@H]3N)cc2nc(-c3cc4cccc(C(N)=O)c4n3CC3CC3)n(C)c12` [Example 184, 2-(5-((1R,4R,7R)-7-Amino-2-azabicyclo[2.2.1]heptane-2-carbonyl)-7-methoxy-1-methyl-1H-benzo[d]imidazol-2-yl)-1-(cyclopropylmethyl)-1H-indole-7-carboxamide], under setting [2], the pIC50 is 7.13. In the case of `COc1cc(C(=O)N2C[C@H]3CC[C@@H]2[C@@H]3N)cc2nc(-c3cc4cccc(C5CC(C(=O)N6CCC6)C5)c4n3CC3CC3)n(C)c12` (single isomer, unassigned; isomer 2) [Example 203], the pIC50 under setting [1] was 7.34.
